Experimental findings from ChEMBL document CHEMBL1128928, “Synthesis and biological properties of partially modified retro and retro-inverso pseudo peptides of arg-gly-asp (RGD)” (Bioorg Med Chem Lett, 1996) are described below.

What all share (type): functional
Assay [1] deals with B16. Kind of assay: Compound was evaluated for lung metastasis produced by 500 ug/mouse i.v. injection of B16-BL6 melanoma,; Range 19-63.
The species named for assay [2] is Homo sapiens. The assay is described as follows: Compound was evaluated for inhibition of ADP-induced human platelet aggregation at concentration 1 mg/mL.
In assay [3] the test system is B16. Kind of assay: Compound was evaluated for lung metastasis produced by 500 ug/mouse i.v. injection of B16-BL6 melanoma.; Range 44-154.
Assay [4] has as its system B16. Kind of assay: Compound was evaluated for lung metastasis produced by 500 ug/mouse i.v. injection of B16-BL6 melanoma. Range 4-36.
Assay [5] is filed under the species Homo sapiens. Kind of assay: Compound was evaluated for inhibition of ADP-induced human platelet aggregation.

As a reminder, the inhibition is the drop in the measured response relative to a control, in per cent. Low readings indicate little suppression, high ones strong suppression. Broadly, the IC50 is the midpoint of a concentration-inhibition curve. Read a low IC50 as higher potency.

For the molecule `N=C(N)NCCC[C@@H](NC(=O)CC(=O)N[C@@H](CC(=O)O)C(=O)O)C(=O)O`, the “No. of lung metastasis” value in assay [1] was determined as 38. The molecule further returned an inhibition at 1000 µg/mL in assay [2] of 53%.

With `N=C(N)NCCC[C@H](N)C(=O)NCC(=O)N[C@@H](CC(=O)O)C(=O)N[C@@H](CO)C(=O)O`, the “No. of lung metastasis” value in assay [3] was determined as 93. This molecule had an inhibition at 1000 µg/mL in assay [2] of 100%.

On to `N=C(N)NCCC[C@H](NC(=O)CC(=O)N[C@@H](CC(=O)O)C(=O)O)C(=O)O`, for which the “No. of lung metastasis” value in assay [4] is 19. Further, the IC50 in assay [5] is 2400 µM. Also, the inhibition at 1000 µg/mL in assay [2] was 57%.
